Source: patent publication US7795208B2, “Methods of using deacetylase inhibitors to promote cell differentiation and regeneration” (The Salk Institute for Biological Study, priority 2001, dated 2010)
Where “and” joins values, the source holds several entries; their conditions need not be identical. Equal entries are not always repeated. Entries after “also recorded” stand apart in the source; their conditions may differ.

How the values were obtained:
Format in all cases: cell-based, mouse
C2C12 cells = experiment: Differentiation and muscle protein expression of C2C12 myoblasts exposed to deacetylase inhibitors (MHC immunofluorescence, Western blot, RT-PCR, FACS)
Experimental: (§1) Mouse muscle myoblast C2C12 cells (obtained from the American Type Culture Collection, ATCC CRL-1772) and CC42 cells (from Dr. Kenneth Walsh, Tufts University School of Medicine) were cultured in DMEM supplemented with 20% fetal bovine serum, 2 mM glutamine and 1× kanamycin (growth medium, GM). Cellular differentiation was induced with DMEM supplemented with 2% horse serum and 1× insulin, transferring, selenium (Life Technologies). Human skeletal myocytes (CC-2561) were purchased from Clonetics. Stable C2C12 cell lines with integrated reporters are described in Wu, Z., et al., Mol Cell Biol 20:3951-64 (2000). The MCK-luc, 4RE-luc, MEF2 reporter constructs have been described in Puri, P. L., et al., EMBO Journal 16:369-83 (1997a) and Sartorelli, V., et al., Molecular & Cellular Biology 17:1010-26 (1997). The E2F-luc plasmid is described in Helin, K., et al., Genes Dev 7:1850-61 (1993). The MLC-lacZ-nls plasmid is described in Wu, et al. (2000). Dr. Stuart Schreiber (Harvard University) provided the vector expressing Flag-HDAC1, which is described in Taunton, J., et al., Science 272: 408-11 (1996). Transient transfections were performed using FuGENE 6 transfection reagent (Roche Molecular Biochemicals). Following transfections, luciferase activity was determined using the Dual-Luciferase reporter assay system (Promega) on a microtiter luminescence detection system (MLX, Dynex).
For immunoblotting, cell extracts were obtained after incubating the cells in standard lysis buffer. Western blots were probed with the following antibodies: anti-MHC (MF-20), anti-myogenin (FD5), and anti-tubulin (E7), obtained from the Developmental Studies Hybridoma Bank, University of Iowa. Primary antibodies were visualized with the ECL cheminoluminescent kit (Amersham). Cells were fixed and stained with anti-MHC MF-20 antibodies. Nuclei were visualized by 4′,6′-[…]-2-phenylindole (DAPI). FITC-conjugated or Texas red-conjugated secondary antibodies were employed to reveal the primary antibodies.
C2C12 and CC42 cells were exposed to sodium butyrate 5 mM (Sigma), trichostatin A 50 nM (Upstate Biotechnologies), or valproic acid 10 mM (Sigma) for 24 hours in GM (GM regimen). TSA was removed and the cells cultured in DM for 48 hrs before being analyzed. When indicated (DM regimen), the cells were exposed to deacetylase inhibitors when switched from GM to DM and cultured in their presence for 48 hrs.
Another striking effect induced by DI is their ability to increase the number of nuclei present in MHC positive cells. While approximately 15% of the total nuclei are present in elongated, MHC-positive myotubes not exposed to DI, approximately 75-80% of the total nuclei are detected in hypernucleated MHC-positive myotubes when these have been previously exposed to DI (see FIG. 1D and Table 1). In Table 1, C2C12 cells were either exposed to sodium butyrate, TSA, VPA or left untreated for 24 hours in GM. The medium was replaced with DM without DI, and MHC expression was detected by immunofluorescent staining. Nuclei were visualized with DAPI. The values in parenthesis indicate the percentage of nuclei detected in MHC-positive cells. The values are derived from two independent trials.

[1] = test system: 4RE-luc, MEF2-luc, MCK-luc; experiment: Luciferase assay of transiently transfected myogenic reporters in skeletal myoblasts
Experimental: as §1, with “Dr. Stuart Schreiber (Harvard University) provided the vector expressing Flag-HDAC1, which is described in Taunton, J., et al., Science 272: 408-11 (1996). Transient transfections were performed using FuGENE 6 transfection reagent (Roche Molecular Biochemicals).” left out
C2C12 and CC42 cells were exposed to sodium butyrate 5 mM (Sigma), trichostatin A 50 nM (Upstate Biotechnologies), or valproic acid 10 mM (Sigma) for 24 hours in GM (GM regimen). TSA was removed and the cells cultured in DM for 48 hrs before being analyzed. […]

MLC3F-lacZ-nls construct = experiment: β-Galactosidase assay of cells transfected with MLC3F-lacZ-nls; conditions: transfected cells exposed in GM, then DM 48 hours; vs non-treated cells
Experimental: FIGS. 4A-C illustrate that embryos exposed to DI display enhanced somitogenesis and increased muscle gene expression. […] Cells were then exposed to TSA (50 nM) in GM and subsequently switched to DM for 48 hours. Cells were stained to detect β-galactosidase activity. FIG. 4B is a picture of E 10.5 embryos derived from MLC1/3F-nLacZ transgenic mice exposed to either TSA or VPA treatment (see Example 1) and stained for 1 hour at 30° C. to detect β-galactosidase activity. […] FIG. 4C is a Western blot of extracts derived from total embryos exposed to either TSA or VPA; MHC is detected.
Cells transfected with MLC-lacZ-nls were washed twice in PBS, fixed in 4% paraformaldeheyde-PBS for 5 min, washed twice in PBS, and stained for 2-5 hrs with 5 mM potassium ferrycyanide, 5 mM potassium ferrocyanide, 2 mM MgCl2, 1 mg/ml X-gal (5-bromo-4-chloro-3-indolyl-β-D-galactoside).

E2F-responsive construct = experiment: Luciferase assay of E2F-responsive construct; conditions: cells exposed to DI in DM
Experimental: as §1, with “FIGS. 2A-D are graphs showing DI activation muscle-specific transcription in skeletal muscle cells. […] Luciferase activity was measured in non-treated cells cultured in either GM (GM) or DM (DM). […] The reporter activity was also analyzed in cells differentiated in the absence of TSA (DM) Mouse” for “Mouse”, “[…].,” for “Helin, K.,”, “The MLC-lacZ-nls plasmid is described in Wu, et al. (2000). Dr. Stuart Schreiber (Harvard University) provided the vector expressing Flag-HDAC1, which is described in Taunton, J., et al., Science 272: 408-11 (1996). Transient transfections were performed using FuGENE 6 transfection reagent (Roche Molecular Biochemicals).” left out

[2] = C2C12, DI 24 hours in GM, then DM without DI, Tr. 1 and Tr. 2

## CC(/C=C/C(=O)NO)=C\[C@@H](C)C(=O)c1ccc(N(C)C)cc1 [TSA, trichostatin A]
C2C12 cells; [2]
  Nuclei/MHC-Positive Cells (number of nuclei): 200 and 210
  percentage of nuclei detected in MHC-positive cells: 75% and 65%
C2C12 cells; undifferentiated myoblasts exposed in GM
  endogenous MCK transcripts (RT-PCR): induction of endogenous MCK transcripts
C2C12 cells; undifferentiated myoblasts exposed in GM, differentiated in the absence of DI, vs untreated cells
  MHC expression and frequency of MHC-positive multinucleated cells: effects undistinguishable from those exerted by sodium butyrate
[1]; HDAC1 expression vector co-transfected
  HDAC1-mediated inhibition of 4RE-luc: could be reversed
[1]; treatment in GM or in DM
  transcription of transiently transfected myogenic reporter constructs: stimulates transcription of the reporter constructs only when the DI inhibitors are applied to the cells cultured in GM; also recorded: activation of a transfected MCK-luc reporter
MLC3F-lacZ-nls construct
  β-galactosidase-positive nuclei: increased β-galactosidase-positive nuclei
E2F-responsive construct
  transcription driven from an E2F-responsive construct: stimulated
